Source: US10808007B2, “Desacetoxytubulysin H and analogs thereof” (WILLIAM MARSH RICE UNIVERSITY, priority 2015, dated 2020)
pIC50: −log10 of the molar value. Like-named read-outs stand apart in the source and are kept apart here.

Experiments:
Assay type in all cases: cell-based
melanoma cell lines = experiment: NCI-60 cytotoxicity, melanoma; conditions: Homo sapiens
Procedure: (§1) A number of the synthesized compounds (i.e. Tb1-Tb23) were evaluated for their activity against a variety of cancer cell lines, namely the NCI-60 human cancer cell line panel representing leukemia, melanoma, lung, colon, brain, ovary, breast, prostate and kidney types of cancer through the In Vitro Cell Line Screening Project (IVCLSP) of the National Cancer Institute (NCI), and a summary of the results is shown in Table 1. […] As there was interest in the activity in certain other cell lines, these and the remaining compounds (Tb1-Tb41, PTb-D42 and PTb-D43) were subjected to further testing against MES SA (uterine sarcoma cells), MES SA DX (multidrug resistant uterine sarcoma cells), and HEK 293T (human embryonic kidney cells). […] Tubulysins are known to be substrates for Pgp pumps (Xiangming, et al., 2013; Kaur, et al., 2006; Szakacs, et al., 2006) as supported by the observed low activities of all tubulysins tested except Tb28, Tb32 and Tb33.

[1] = test system: non-small cell lung cancer cell lines; experiment: NCI-60 cytotoxicity, non-small cell lung cancer; conditions: Homo sapiens
Procedure: as §1

[2] = test system: MES SA (uterine sarcoma cells); experiment: Cytotoxic assay (CellTiter-Glo, 72 h), MES SA; conditions: Homo sapiens, MES-SA, read-out: IC50 MES SA
[3] = test system: ovarian cancer cell lines; experiment: NCI-60 cytotoxicity, ovarian cancer; conditions: Homo sapiens
Procedure: as §1

[4] = test system: prostate cancer cell lines; experiment: NCI-60 cytotoxicity, prostate cancer; conditions: Homo sapiens
Procedure: as §1

[5] = test system: MES SA DX (multidrug resistant uterine sarcoma cells); experiment: Cytotoxic assay (CellTiter-Glo, 72 h), MES SA DX; conditions: Homo sapiens
breast cancer cell lines = experiment: NCI-60 cytotoxicity, breast cancer; conditions: Homo sapiens
Procedure: as §1

CNS cancer cell lines = experiment: NCI-60 cytotoxicity, CNS cancer; conditions: Homo sapiens
Procedure: as §1

renal cancer cell lines = experiment: NCI-60 cytotoxicity, renal cancer; conditions: Homo sapiens
Procedure: as §1

[6] = test system: HEK 293T (human embryonic kidney cells); experiment: Cytotoxic assay (CellTiter-Glo, 72 h), HEK 293T; conditions: Homo sapiens, HEK-293T, read-out: IC50 HEK 293T
[7] = test system: leukemia cancer cell lines; experiment: NCI-60 cytotoxicity, leukemia; conditions: Homo sapiens
Procedure: as §1

colon cancer cell lines = experiment: NCI-60 cytotoxicity, colon cancer; conditions: Homo sapiens
Procedure: as §1

SMILES | GI50 (melanoma cell lines; NCI-60, selected value) [nM] | pIC50 ([2]; 72 h) | GI50 ([4]; NCI-60, selected value) [nM] | pIC50 [5] | GI50 (CNS cancer cell lines; NCI-60, selected value) [nM] | pIC50 ([6]; 72 h) | GI50 (colon cancer cell lines; NCI-60, selected value) [nM] | GI50 ([1]; NCI-60, selected value) [nM] | GI50 ([3]; NCI-60, selected value) [nM] | GI50 (breast cancer cell lines; NCI-60, selected value) [nM] | GI50 (renal cancer cell lines; NCI-60, selected value) [nM] | GI50 ([7]; NCI-60, selected value) [nM] | pIC50 [2] | pIC50 [6] | other results
CCC(C)[C@H](NC(=O)[C@H]1CCCCN1C)C(=O)N(C)[C@H](C[C@@H](OC(C)=O)c1nc(C(=O)NC23C4C5C2C2C3C4C52C(=O)OC)cs1)C(C)C (stereo in doubt) [Tb11, Methyl 4-(2-((1R,3R)-1-acetoxy-3-((2S,3S)—N,3-dimethyl-2-((R)-1-methylpiperidine-2-carboxamido)-pentanamido)-4-methylpentyl)thiazole-4-carboxamido)cubane-1-carboxylate] | 0.349 | 9.08 | 1.13 | < 7.30 | 1.15 | 9.59 | 1.14 |  |  |  |  |  |  |  | GI50 (melanoma cell lines; NCI-60): 0.349 nM; GI50 ([1]; NCI-60): 0.331 nM; GI50 ([3]; NCI-60): 0.489 nM; GI50 ([4]; NCI-60): 1.13 nM; GI50 (breast cancer cell lines; NCI-60): 0.428 nM; GI50 (CNS cancer cell lines; NCI-60): 1.15 nM; GI50 (renal cancer cell lines; NCI-60): 0.768 nM; GI50 ([7]; NCI-60): 0.159 nM; GI50 (colon cancer cell lines; NCI-60): 1.14 nM
CCC(C)[C@H](NC(=O)CN(C)C)C(=O)N(C)[C@H](C[C@@H](OC(C)=O)c1nc(C(=O)NC23C4C5C2C2C3C4C52C(=O)OC)cs1)C(C)C (stereo in doubt) [Tb13, Methyl 4-(2-((6S,9R,11R)-6-((S)-sec-butyl)-9-isopropyl-2,8-dimethyl-4,7,13-trioxo-12-oxa-2,5,8-triaza-tetradecan-11-yl)thiazole-4-carboxamido)cubane-1-carboxylate] | 40.2 | < 7.30 | 167 | < 7.30 | 117 | < 7.30 | 122 | 142 | 111 | 136 | 167 | 13.8 |  |  | 
CCC(C)[C@H](NC(=O)[C@H]1CCCCN1C)C(=O)N(C)[C@H](C[C@@H](OC(C)=O)c1nc(C(=O)NC23CC(C(=O)OC)(C2)C3)cs1)C(C)C (stereo in doubt) [Tb14, Methyl 3-(2-((1R,3R)-1-acetoxy-3-((2S,3S)—N,3-dimethyl-2-((R)-1-methylpiperidine-2-carboxamido)-pentanamido)-4-methylpentyl)thiazole-4-carboxamido)bicyclo[1.1.1]pentane-1-carboxylate] | 0.137 | 9.46 | 0.449 | < 7.30 | 0.382 | 9.96 | 0.433 |  |  |  |  |  | 9.46 | 9.96 | GI50 (melanoma cell lines; NCI-60): 0.137 nM; GI50 ([1]; NCI-60): 0.156 nM; GI50 ([3]; NCI-60): 0.256 nM; GI50 ([4]; NCI-60): 0.449 nM; GI50 (breast cancer cell lines; NCI-60): 0.267 nM; GI50 (CNS cancer cell lines; NCI-60): 0.382 nM; GI50 (renal cancer cell lines; NCI-60): 0.364 nM; GI50 ([7]; NCI-60): 0.064 nM; GI50 (colon cancer cell lines; NCI-60): 0.433 nM
CC[C@H](C)[C@H](NC(=O)[C@H]1CCCCN1C)C(=O)N(C)[C@H](C[C@@H](OC(C)=O)c1nc(C(=O)N[C@@H](Cc2ccccc2)C[C@H](C)C(=O)O)cs1)C(C)C [Tb1, N^14-desacetoxytubulysin H] | 0.074 | 9.47 | 0.339 | < 8.00 | 0.305 | 10.70 | 0.269 | 0.347 | 0.234 | 0.147 | 0.548 | 0.264 | 9.47 | 10.70 | 
CC[C@H](C)[C@H](NC(=O)[C@H]1CCCCN1C)C(=O)N(C)[C@H](C[C@@H](OC(C)=O)c1nc(C(=O)N[C@@H](Cc2ccccc2)C[C@H](C)C(=O)OC)cs1)C(C)C [Tb2, Methyl (2S,4R)-4-(2-((1R,3R)-1-acetoxy-3-((2S,3S)—N,3-dimethyl-2-((R)-1-methylpiperidine-2-carbo-xamido)pentanamido)-4-methylpentyl)thiazole-4-carboxamido)-2-methyl-5-phenylpentanoate] | 0.03 | 9.70 | 0.162 | < 8.00 | 0.219 | 10.52 | 0.158 | 0.28 | 0.042 | 0.043 | 0.218 | 0.078 | 9.70 | 10.52 | 
CC[C@H](C)[C@H](NC(=O)c1ccccn1)C(=O)N(C)[C@H](C[C@@H](OC(C)=O)c1nc(C(=O)N[C@@H](Cc2ccccc2)C[C@H](C)C(=O)OC)cs1)C(C)C [Tb3, (2S,4R)-Methyl 4-(2-((1R,3R)-1-acetoxy-3-((2S,3S)—N,3-dimethyl-2-(picolinamido)pentanamido)-4-methylpentyl)thi-azole-4-carboxamido)-2-methyl-5-phenylpentanoate] | > 1000 | < 7.30 | > 1000 | < 7.30 | > 1000 | < 7.30 | > 1000 | > 1000 | > 1000 | > 1000 | > 1000 | > 1000 |  |  | 
CC[C@H](C)[C@H](NC(=O)N[C@@H](C)c1ccccc1)C(=O)N(C)[C@H](C[C@@H](OC(C)=O)c1nc(C(=O)N[C@@H](Cc2ccccc2)C[C@H](C)C(=O)OC)cs1)C(C)C [Tb4, (2S,4R)-Methyl 4-(2-((2S,6S,9R,1 IR)-6-((S)-sec-butyl)-9-isopropyl-8-methyl-4,7,13-trioxo-2-phenyl-12-oxa-3,5,8-tri-azatetradecan-11-yl)thiazole-4-carboxamido)-2-methyl-5-phenylpentanoate] | > 1000 | < 7.30 | > 1000 | < 7.30 | > 1000 | < 7.30 | > 1000 | > 1000 | > 1000 | > 1000 | > 1000 | > 1000 |  |  | 
CC[C@H](C)[C@H](NC(=O)Nc1ccccc1)C(=O)N(C)[C@H](C[C@@H](OC(C)=O)c1nc(C(=O)N[C@@H](Cc2ccccc2)C[C@H](C)C(=O)OC)cs1)C(C)C [Tb5, (2S,4R)-Methyl 4-(2-((1R,3R)-1-acetoxy-3-((2S,3S)—N,3-dimethyl-2-(3-phenylureido)pentanamido)-4-methylpentyl)thiazole-4-carboxamido)-2-methyl-5-phenylpentanoate] | 416 | < 7.30 | > 1000 | < 7.30 | > 1000 | < 7.30 | > 1000 | > 1000 | > 1000 | 514 | > 1000 | > 1000 |  |  | 
CC[C@H](C)[C@H](NC(=O)NC(C)(C)C)C(=O)N(C)[C@H](C[C@@H](OC(C)=O)c1nc(C(=O)N[C@@H](Cc2ccccc2)C[C@H](C)C(=O)OC)cs1)C(C)C [Tb6, Methyl (2S,4R)-4-(2-((6S,9R,1R)-6-((S)-sec-butyl)-9-isopropyl-2,2,8-trimethyl-4,7,13-trioxo-12-oxa-3,5,8-triazatetradecan-11-yl)thiazole-4-carboxamido)-2-methyl-5-phenylpentanoate] | 83.9 | < 7.30 | 689 | < 7.30 | 439 | < 7.30 | 339 | 164 | 127 | 71.4 | 154 | 286 |  |  | 
